≈ marks a conversion by molar mass, not a printed value.
Details: for aqueous solubility: pH 6.8

SMILES	MDR1-MDCK efflux ratio	aqueous solubility	intrinsic clearance, human liver microsomes	intrinsic clearance, rat liver microsomes	fraction unbound, human plasma	fraction unbound, rat plasma
Cc1ccccc1Cn1c(=O)c2c(nc3n(-c4ccccc4O)c(C)cn23)n(C)c1=O	21.8	0.91 µg/mL (≈ 2.19 µM)	–	–	–	–
CC(C)C(=O)Nc1ncn(Cc2cccnc2)n1	16.3	38 µg/mL (≈ 155 µM)	≤ 4.74 mL/min/kg	≤ 10.7 mL/min/kg	–	–
Cc1cnc(CS(=O)(=O)C2CCCC2)cn1	–	36.2 µg/mL (≈ 151 µM)	–	–	–	–
CC(C)c1noc(CN(C)C2CCCC2)n1	–	17.3 µg/mL (≈ 77.3 µM)	15.9 mL/min/kg	657 mL/min/kg	–	–
Cc1c[nH]c(C(=O)NCC2(N3CCCCC3)CCCC2)n1	20.3	–	7.62 mL/min/kg	191 mL/min/kg	–	–
CC(=O)N1CCCC(C(=O)N2CCc3c(cccc3C(C)C)C2)C1 (stereo unspecified)	–	55 µg/mL (≈ 167 µM)	46 mL/min/kg	506 mL/min/kg	–	–
COc1cccc(-c2nc(C(=O)O)cs2)c1OC	0.916	37.7 µg/mL (≈ 142 µM)	≤ 4.74 mL/min/kg	≤ 10.7 mL/min/kg	–	–
Nc1cnn(CC(=O)N2CCCCC2)c1	–	36.4 µg/mL (≈ 175 µM)	≤ 4.74 mL/min/kg	≤ 10.7 mL/min/kg	–	–
CNCc1cc(N(C)C)nc(C2CCCN2C(=O)c2oc3ccc(Cl)cc3c2C)n1 (stereo unspecified)	117	–	44.7 mL/min/kg	840 mL/min/kg	–	–
Cc1cc(C)nc(-n2nc(C)c(CC(=O)NC3CCCCCC3)c2C)n1	33.3	54.6 µg/mL (≈ 154 µM)	43.9 mL/min/kg	832 mL/min/kg	–	–
C[C@H]1CC[C@H](n2c3cnccc3c3cnc(Nc4ccc5c(n4)CCN(C(=O)CO)C5)nc32)CC1	4.93	–	133 mL/min/kg	349 mL/min/kg	–	–
CCn1nc(CNC(=O)c2nc(C)c[nH]2)c2ccccc21	5.37	–	11.2 mL/min/kg	236 mL/min/kg	–	–
O=C(CN1CCc2ccccc21)N1CCNC1=O	0.72	27.5 µg/mL (≈ 112 µM)	≤ 4.74 mL/min/kg	16.2 mL/min/kg	–	–
CCc1ccccc1NC(=O)CCn1ccnc1-c1ccc2c(c1)OCO2	22.1	42 µg/mL (≈ 116 µM)	126 mL/min/kg	891 mL/min/kg	–	–
CC(=O)Nc1ncc(C(=O)O)s1	–	–	–	–	0.66	0.715
COc1cc(OC)cc(C(=O)NCc2noc(-c3ccccc3)n2)c1	0.335	–	34.9 mL/min/kg	628 mL/min/kg	–	–
Cn1ccnc1CN1CCN(Cc2ccc(F)cc2C#N)CC1	6.3	43.9 µg/mL (≈ 140 µM)	≤ 4.74 mL/min/kg	446 mL/min/kg	–	–
CCCC1(CNC(=O)Cn2ccc(=O)cc2)CCC1	14.3	–	≤ 4.74 mL/min/kg	14.6 mL/min/kg	–	–
COc1ccc(-n2cc3c(c2-c2ccccc2Br)c(=O)n(C)c(=O)n3C)cc1	0.946	4.92 µg/mL (≈ 11.2 µM)	37.5 mL/min/kg	521 mL/min/kg	–	–
Cc1ccc(S(=O)(=O)N2CCC[C@H](C(=O)NC3CCOCC3)C2)cc1	20.9	54.1 µg/mL (≈ 148 µM)	≤ 4.74 mL/min/kg	581 mL/min/kg	–	–

SMILES	MDR1-MDCK efflux ratio	aqueous solubility	intrinsic clearance, human liver microsomes	intrinsic clearance, rat liver microsomes	fraction unbound, human plasma	fraction unbound, rat plasma
O=C(c1ccc(Cn2nnc(-c3cccc(F)c3)n2)cc1)N1CCCC1	0.793	10.8 µg/mL (≈ 30.7 µM)	12.1 mL/min/kg	125 mL/min/kg	–	–
COC(=O)c1ccc(NC(=O)N(C)Cc2ccccc2CN2CCCC2)cc1	7.85	40.8 µg/mL (≈ 107 µM)	18.2 mL/min/kg	277 mL/min/kg	–	–
Nc1ccnn1Cc1ccc(Cl)c(F)c1	–	41.1 µg/mL (≈ 182 µM)	≤ 4.74 mL/min/kg	36.6 mL/min/kg	–	–
Cc1noc([C@@H]2C[C@H](NC(=O)c3ccc(F)cc3)CN2C)n1	0.792	16.2 µg/mL (≈ 53.2 µM)	6.88 mL/min/kg	16.3 mL/min/kg	–	–
Cc1ncc(CN2CCC(Nc3ccc4nnnn4n3)C(C)C2)s1 (stereo unspecified)	27.5	–	16.2 mL/min/kg	122 mL/min/kg	0.449	0.379
O=C(Nc1nc(-c2ccccn2)cs1)c1ccc(F)cc1Cl	0.149	5.16 µg/mL (≈ 15.5 µM)	82.2 mL/min/kg	127 mL/min/kg	–	–
COC(=O)Nc1ccc(Oc2nc3ccccc3o2)cc1	0.543	22.2 µg/mL (≈ 78.1 µM)	≤ 4.74 mL/min/kg	29.1 mL/min/kg	–	–
O=C(NC1CCCC1)C1=CCN(C(=O)C2CC2)C1	5.2	–	≤ 4.74 mL/min/kg	37.3 mL/min/kg	–	–
CCc1nnc(NC(=O)Cc2cccc(F)c2)s1	0.912	12.2 µg/mL (≈ 46 µM)	7.42 mL/min/kg	76.3 mL/min/kg	–	–
CS(=O)(=O)N1CC(c2n[nH]c3ncccc23)C1	1.41	33.3 µg/mL (≈ 132 µM)	≤ 4.74 mL/min/kg	≤ 10.7 mL/min/kg	–	–
COc1ccc(NC(=O)CN2CCC(c3cc(-c4cnc(N)nc4)cc(C)n3)CC2)cc1	5.08	42.5 µg/mL (≈ 98.2 µM)	15.7 mL/min/kg	245 mL/min/kg	–	–
Cc1cn[nH]c1C1(C)CCN(Cc2cnn(C)c2)CC1	22.6	28.4 µg/mL (≈ 104 µM)	≤ 4.74 mL/min/kg	79.1 mL/min/kg	–	–
CCOC(=O)C1CCN(C(=O)c2cc3occc3c(Nc3ccc(F)cc3)n2)CC1	1.32	0.88 µg/mL (≈ 2.14 µM)	–	–	–	–
CCC[C@@H]1C[C@@H](C(=O)N[C@@H]([C@H]2O[C@H](SC)[C@H](O)[C@@H](O)[C@@H]2O)[C@@H](C)O)N(C)C1	2.51	–	13.3 mL/min/kg	88.3 mL/min/kg	–	–
CN(C)S(=O)(=O)CCCN1CCc2ccccc2CC1	0.6	–	15.9 mL/min/kg	716 mL/min/kg	–	–
CN[C@@H](C)C(=O)N[C@H](C(=O)N1CCC[C@H]1C(=O)Nc1snnc1-c1ccccc1)C1CCCCC1	47.8	–	–	–	–	–
Cc1ccc(-c2ccnc(N3C[C@@H](C)NC[C@@H]3C)n2)c(C)n1	25.7	25.9 µg/mL (≈ 87.2 µM)	≤ 4.74 mL/min/kg	78.7 mL/min/kg	–	–
Cn1cc(CCNc2cncc(Br)c2)cn1	0.655	40.4 µg/mL (≈ 144 µM)	12 mL/min/kg	110 mL/min/kg	–	–
CN1C(=O)c2ccc(C(=O)N3CCN(C4CCCCC4)CC3)cc2C1=O	–	–	18.5 mL/min/kg	137 mL/min/kg	–	–
CCc1nc2c(C)cc(N3CCN(CC(=O)N4CC(O)C4)CC3)cn2c1N(C)c1nc(-c2ccc(F)cc2)c(C#N)s1	97.9	60.3 µg/mL (≈ 102 µM)	108 mL/min/kg	557 mL/min/kg	0.00624	0.00368
